Test results reported in patent publication US8895587B2, “Insecticidal compounds based on arylthioacetamide derivatives” (Syngenta Participations AG, priority 2011, dated 2014).

Experiments:
Type in all cases: in vivo
[1] = tested on: Spodoptera littoralis; assay: Spodoptera littoralis (Egyptian cotton leafworm) leaf disc test; settings: foliar, 72 h, application rate 200 ppm, cotton leaf discs, L1 larvae, mortality, feeding behavior, growth regulation 3 DAT
Description: Spodoptera littoralis (Egyptian Cotton Leafworm): Cotton leaf discs were placed on agar in a 24-well microtiter plate and sprayed with test solutions at an application rate of 200 ppm. After drying, the leaf discs were infested with 5 L1 larvae. The samples were checked for mortality, feeding behavior, and growth regulation 3 days after treatment (DAT).

[2] = tested on: Heliothis virescens; assay: Heliothis virescens (tobacco budworm) egg/larval test on artificial diet; settings: 96 h, application rate 200 ppm (concentration in well 18 ppm), eggs on artificial diet, 4 days
Method: Eggs (0-24 h old) were placed in 24-well microtiter plate on artificial diet and treated with test solutions at an application rate of 200 ppm (concentration in well 18 ppm) by pipetting. After an incubation period of 4 days, samples were checked for egg mortality, larval mortality, and growth regulation.

[3] = tested on: Plutella xylostella; assay: Plutella xylostella (diamond back moth) larval test on artificial diet; settings: 144 h, application rate 200 ppm (concentration in well 18 ppm), L2 larvae on artificial diet, 6 days
Method: 24-well microtiter plate (MTP) with artificial diet was treated with test solutions at an application rate of 200 ppm (concentration in well 18 ppm) by pipetting. After drying, the MTP's were infested with L2 larvae (7-12 per well). After an incubation period of 6 days, samples were checked for larval mortality and growth regulation.

[4] = tested on: Diabrotica balteata; assay: Diabrotica balteata (corn root worm) larval test on artificial diet; settings: 120 h, application rate 200 ppm (concentration in well 18 ppm), L2 larvae on artificial diet, 5 days
Method: Diabrotica balteata (Corn Root Worm): A 24-well microtiter plate (MTP) with artificial diet was treated with test solutions at an application rate of 200 ppm (concentration in well 18 ppm) by pipetting. After drying, the MTP's were infested with L2 larvae (6-10 per well). After an incubation period of 5 days, samples were checked for larval mortality and growth regulation.

[5] = tested on: Myzus persicae; assay: Myzus persicae (green peach aphid), systemic test; settings: 144 h, application rate 12.5 ppm, roots of pea seedlings in test solution, 6 days
Description: Myzus persicae (Green peach aphid), systemic test: Roots of pea seedlings, infested with an aphid population of mixed ages, are placed directly in the test solutions at an application rate of 12.5 ppm. 6 days after introduction, samples are checked for mortality and special effects on the plant. The following compounds gave at least 80% control of Myzus persicae: […]

[6] = tested on: Thrips tabaci; assay: Thrips tabaci (onion thrips) leaf disc test; settings: foliar, 168 h, application rate 200 ppm, sunflower leaf discs, 7 days
Method: Sunflower leaf discs were placed on agar in a 24-well microtiter plate and sprayed with test solutions at an application rate of 200 ppm. After drying, the leaf discs were infested with a thrips population of mixed ages. After an incubation period of 7 days, samples were checked for mortality.

[7] = tested on: Tetranychus urticae; assay: Tetranychus urticae (two-spotted spider mite) leaf disc test; settings: foliar, 192 h, application rate 200 ppm, bean leaf discs, 8 days
Description: Bean leaf discs on agar in 24-well microtiter plates were sprayed with test solutions at an application rate of 200 ppm. After drying, the leaf discs are infested with mite populations of mixed ages. 8 days later, discs are checked for egg mortality, larval mortality, and adult mortality.

Cc1cc(C2=NOC(c3cc(Cl)cc(Cl)c3)(C(F)(F)F)C2)ncc1SCC(=O)NC1CC1 (stereo not drawn) [Compound F2, N-cyclopropyl-2-[[6-[5-(3,5-dichlorophenyl)-5-(trifluoromethyl)-4H-isoxazol-3-yl]-4-methyl-3-pyridyl]sulfanyl]acetamide]
≥ 80%: pest or weed control at 200 ppm [1] | pest or weed control at 200 ppm [2] | pest or weed control at 200 ppm [3] | pest or weed control at 200 ppm [4] | pest or weed control at 12.5 ppm [5]

O=C(CSc1ccc(C2=NOC(c3cc(Cl)cc(Cl)c3)(C(F)(F)F)C2)cc1Cl)NCC(F)(F)F (stereo not drawn) [Compound A5, 2-{2-Chloro-4-[5-(3,5-Dichloro-phenyl)-5-trifluoromethyl-4,5-dihydro-isoxazol-3-yl]-phenylsulfanyl}-N-(2,2,2-trifluoro-ethyl)-acetamide]
≥ 80%: pest or weed control at 200 ppm [1] | pest or weed control at 200 ppm [2] | pest or weed control at 200 ppm [3] | pest or weed control at 200 ppm [4] | pest or weed control at 12.5 ppm [5] | pest or weed control at 200 ppm [6] | pest or weed control at 200 ppm [7]

Cc1cc(C2=NO[C@@](c3cc(Cl)cc(Cl)c3)(C(F)(F)F)C2)ccc1SCC(=O)NCC(F)(F)F [Compound C4, 2-{4-[(S)-5-(3,5-Dichloro-phenyl)-5-trifluoromethyl-4,5-dihydro-isoxazol-3-yl]-2-methyl-phenylsulfanyl}-N-(2,2,2-trifluoro-ethyl)-acetamide]
≥ 80%: pest or weed control at 200 ppm [1] | pest or weed control at 200 ppm [4]

Cc1cc(C2=NOC(c3cc(Cl)cc(Cl)c3)(C(F)(F)F)C2)cnc1SCC(=O)NC1CC1 (stereo not drawn) [Compound F1, N-cyclopropyl-2-[[5-[5-(3,5-dichlorophenyl)-5-(trifluoromethyl)-4H-isoxazol-3-yl]-3-methyl-2-pyridyl]sulfanyl]acetamide]
≥ 80%: pest or weed control at 200 ppm [1] | pest or weed control at 200 ppm [2] | pest or weed control at 200 ppm [3] | pest or weed control at 200 ppm [4] | pest or weed control at 200 ppm [7]

O=C(C[S+]([O-])c1ccc(C2=NO[C@@](c3cc(Cl)c(Cl)c(Cl)c3)(C(F)(F)F)C2)cc1Cl)NC1CC1 (stereo partly drawn) [Compound D5, 2-[2-chloro-4-[(5S)-5-(3,4,5-trichlorophenyl)-5-(trifluoromethyl)-4H-isoxazol-3-yl]phenyl]sulfinyl-N-cyclopropyl-acetamide]
≥ 80%: pest or weed control at 12.5 ppm [5]

O=C(CS(=O)(=O)c1ccc(C2=NO[C@@](c3cc(Cl)c(Cl)c(Cl)c3)(C(F)(F)F)C2)cc1Cl)NC1CC1 [Compound D6, 2-[2-chloro-4-[(5S)-5-(3,4,5-trichlorophenyl)-5-(trifluoromethyl)-4H-isoxazol-3-yl]phenyl]sulfonyl-N-cyclopropyl-acetamide]
≥ 80%: pest or weed control at 12.5 ppm [5]

N#CC1(NC(=O)CS(=O)(=O)c2ccc(C3=NOC(c4cc(Cl)cc(Cl)c4)(C(F)(F)F)C3)cc2Cl)CC1 (stereo not drawn) [Compound A61, 2-[2-chloro-4-[5-(3,5-dichlorophenyl)-5-(trifluoromethyl)-4H-isoxazol-3-yl]phenyl]sulfonyl-N-(1-cyanocyclopropyl)acetamide]
≥ 80%: pest or weed control at 200 ppm [1] | pest or weed control at 200 ppm [2] | pest or weed control at 200 ppm [3] | pest or weed control at 200 ppm [4] | pest or weed control at 200 ppm [6] | pest or weed control at 200 ppm [7]
